Assay results published in patent US20140308733A1, “METHOD FOR INDUCING GERMINATION OF SPORE FORMING BACTERIUM” (CALPIS CO., LTD., priority 2011, published 2014).

Columns and labels:
Format in all cases: cell-based
[1] = system: Bacillus licheniformis (NBRC 12200); assay: Germination induction, change of turbidity (630 nm) of spore suspension; conditions: 300 ppm; for turbidity (630 nm): 37° C., 150 rpm
Method: (§1) It is possible to determine whether spores have germinated, after measuring an OD 630 value (turbidity at 630 nm) of the liquid culture, based on decrease in the value (Literature: Microbiology, (1950), 4, 3, 330-338). Briefly, bacterial cells after culturing are washed with distilled water and diluted with distilled water to OD 630=1.0, which is then mixed with an equal volume of a germination induction solution, and the turbidity at 630 nm is measured by a UV spectrophotometer at room temperature.
(§2) TS culture media (Difco, Trypticase Soy Broth) were inoculated respectively with 11 strains listed in Table 1 and cultured at 50° C. with respect to Geobacillus stearothermophilus NBRC13737 and Aeribacillus pallidus TK6004 (FERM BP-08597), and at 37° C. with respect to the other 9 strains, until respective colonies were established. Then with respect to each of 11 strains, a loop full of a single colony was scratched by a platinum loop and suspended in 500 μL of sterilized water. In 1000 g of water was dissolved 8.0 g of a nutrient agar culture medium (Difco, Nutrient Broth), followed by high pressure steam sterilization (121° C., 15 min) to prepare a plate medium. The nutrient agar culture medium was smeared with each 100 μL of the suspension and cultured at 37° C. for 3 days.
(§3) Then, bacterial cells were suspended using a platinum loop in 500 μL of sterilized water, and the bacterial suspension was subjected to a heat shock at 65° C. for 35 min. Each 100 μL of the heat-shocked bacterial suspension and a not-heat-shocked bacterial suspension were smeared on the TS culture media respectively and cultured at 50° C. or 37° C. for 1 day.
(§4) After confirming the spore formation, the bacterial cells were collected by a bacteria spreader, suspended in 10 mL of sterilized distilled water, and then centrifuged (8340×g, 4° C., 15 min). The supernatant was removed and thereafter the bacterial cells were washed twice with 10 mL of sterilized water. After washing, the bacterial cells were suspended in 5 mL of sterilized water, and the suspension was filtrated by sterilized Kimwipes. The filtrate was centrifuged (8340×g, 4° C., 15 min) to remove the supernatant, and the rest was adjusted to the turbidity (at 630 nm) of 1.0 with sterilized water.
(§5) After dissolving with stirring using a stirring rod with a propeller, filtration sterilization (0.45 μm filter) was conducted to prepare each 600 ppm-solution.
(§6) Five hundred (500) μL of each solution and 500 μL of each bacterial spore suspension were mixed. […] Defining the time point of mixing as the reaction initiation (0 min), and continuing shaking (150 rpm) at 37° C., the turbidity (630 nm) was measured at 10, 20, 30, 40, 50, 60, 90, 120, and 180 min after the reaction initiation.
(§7) Since the turbidity at 630 nm decreases by germination of spores, it has been known that the turbidity at 630 nm can be used to determine the germination rate.

[2] = system: Bacillus licheniformis (NBRC 14206); assay: as above; conditions: 300 ppm; for turbidity (630 nm): 37° C., 150 rpm
Method: as §1, §2, §3, §4, §5, §6, §7

[3] = system: Bacillus subtilis C-3102 (FERM BP-1096); assay: Influence of the concentration of germination inducer on turbidity change (Example 2); conditions: for turbidity (630 nm): 37° C., 150 rpm
Method: Next, 500 μL aliquots of bacterial suspension of Bacillus subtilis C-3102 (FERM BP-1096) used in Example 1 were mixed with 500 μL of ferulic acid, or vanillic acid solutions described above, and the mixtures were adjusted to ferulic acid (10 to 600 ppm), or vanillic acid (10 to 1800 ppm) concentrations set forth in Table 2. The concentrations of ferulic acid at the reaction initiation were 10, 100, 300, and 600 ppm, and the concentrations of vanillic acid at the reaction initiation were 10, 100, 300, 600, 1200, and 1800 ppm.
As same as Example 1, defining the time point of mixing the bacterial suspension with the solution of ferulic acid, or vanillic acid as the reaction initiation (0 min), and continuing shaking (150 rpm) at 37° C., the absorbance (630 nm) was measured at 10, 20, 30, 40, 50, 60, 90, 120, and 180 min after the reaction initiation.

[4] = 0 min after reaction initiation
[5] = 10 min after reaction initiation
[6] = 20 min after reaction initiation
[7] = 30 min after reaction initiation
[8] = 40 min after reaction initiation
[9] = 50 min after reaction initiation
[10] = 60 min after reaction initiation
[11] = 90 min after reaction initiation
[12] = 120 min after reaction initiation
[13] = 180 min after reaction initiation

Q: For `COc1cc(C(=O)O)ccc1O` [Vanillic acid, vanillic acid], which “turbidity (630 nm)” value [1, 4] is on record?
A: 0.602

Q: What about the “turbidity (630 nm)” value [1, 5] of the same compound?
A: 0.574

Q: And the “turbidity (630 nm)” value [1, 6]?
A: 0.567

Q: And the “turbidity (630 nm)” value [1, 7]?
A: 0.542

Q: What about the “turbidity (630 nm)” value [1, 8] of the same compound?
A: 0.523

Q: And the “turbidity (630 nm)” value [1, 9]?
A: 0.488

Q: What about the “turbidity (630 nm)” value [1, 10] of the same compound?
A: 0.464

Q: And the “turbidity (630 nm)” value [1, 11]?
A: 0.414

Q: And the “turbidity (630 nm)” value [1, 12]?
A: 0.362

Q: What about the “turbidity (630 nm)” value [1, 13] of the same compound?
A: 0.267

Q: And the “germination confirmed by turbidity decrease” value ([1]; up to 180 min)?
A: the turbidity decreased

Q: What about the “turbidity (630 nm)” value [2, 4] of the same compound?
A: 0.583

Q: What about the “turbidity (630 nm)” value [2, 5] of the same compound?
A: 0.573

Q: What about the “turbidity (630 nm)” value [2, 6] of the same compound?
A: 0.563

Q: And the “turbidity (630 nm)” value [2, 7]?
A: 0.553

Q: What about the “turbidity (630 nm)” value [2, 8] of the same compound?
A: 0.537

Q: And the “turbidity (630 nm)” value [2, 9]?
A: 0.526

Q: And the “turbidity (630 nm)” value [2, 10]?
A: 0.503

Q: What about the “turbidity (630 nm)” value [2, 11] of the same compound?
A: 0.470

Q: And the “turbidity (630 nm)” value [2, 12]?
A: 0.453

Q: What about the “turbidity (630 nm)” value [2, 13] of the same compound?
A: 0.414

Q: What about the “germination confirmed by turbidity decrease” value ([2]; up to 180 min) of the same compound?
A: the turbidity decreased

Q: And the “turbidity (630 nm)” value ([3]; vanillic acid 10 ppm, 0 min after reaction initiation)?
A: 0.590

Q: And the “turbidity (630 nm)” value ([3]; vanillic acid 10 ppm, 10 min after reaction initiation)?
A: 0.558

Q: What about the “turbidity (630 nm)” value ([3]; vanillic acid 10 ppm, 20 min after reaction initiation) of the same compound?
A: 0.548

Q: What about the “turbidity (630 nm)” value ([3]; vanillic acid 10 ppm, 30 min after reaction initiation) of the same compound?
A: 0.539

Q: What about the “turbidity (630 nm)” value ([3]; vanillic acid 10 ppm, 40 min after reaction initiation) of the same compound?
A: 0.527

Q: And the “turbidity (630 nm)” value ([3]; vanillic acid 10 ppm, 50 min after reaction initiation)?
A: 0.514

Q: What about the “turbidity (630 nm)” value ([3]; vanillic acid 10 ppm, 60 min after reaction initiation) of the same compound?
A: 0.497

Q: And the “turbidity (630 nm)” value ([3]; vanillic acid 10 ppm, 90 min after reaction initiation)?
A: 0.472

Q: And the “turbidity (630 nm)” value ([3]; vanillic acid 10 ppm, 120 min after reaction initiation)?
A: 0.437

Q: What about the “turbidity (630 nm)” value ([3]; vanillic acid 10 ppm, 180 min after reaction initiation) of the same compound?
A: 0.338

Q: What about the “turbidity (630 nm)” value ([3]; vanillic acid 100 ppm, 0 min after reaction initiation) of the same compound?
A: 0.584

Q: And the “turbidity (630 nm)” value ([3]; vanillic acid 100 ppm, 10 min after reaction initiation)?
A: 0.557

Q: What about the “turbidity (630 nm)” value ([3]; vanillic acid 100 ppm, 20 min after reaction initiation) of the same compound?
A: 0.553

Q: What about the “turbidity (630 nm)” value ([3]; vanillic acid 100 ppm, 30 min after reaction initiation) of the same compound?
A: 0.537

Q: What about the “turbidity (630 nm)” value ([3]; vanillic acid 100 ppm, 40 min after reaction initiation) of the same compound?
A: 0.526

Q: And the “turbidity (630 nm)” value ([3]; vanillic acid 100 ppm, 50 min after reaction initiation)?
A: 0.501

Q: And the “turbidity (630 nm)” value ([3]; vanillic acid 100 ppm, 60 min after reaction initiation)?
A: 0.491

Q: And the “turbidity (630 nm)” value ([3]; vanillic acid 100 ppm, 90 min after reaction initiation)?
A: 0.470

Q: And the “turbidity (630 nm)” value ([3]; vanillic acid 100 ppm, 120 min after reaction initiation)?
A: 0.433

Q: What about the “turbidity (630 nm)” value ([3]; vanillic acid 100 ppm, 180 min after reaction initiation) of the same compound?
A: 0.315

Q: What about the “turbidity (630 nm)” value ([3]; vanillic acid 300 ppm, 0 min after reaction initiation) of the same compound?
A: 0.572

Q: And the “turbidity (630 nm)” value ([3]; vanillic acid 300 ppm, 10 min after reaction initiation)?
A: 0.555

Q: And the “turbidity (630 nm)” value ([3]; vanillic acid 300 ppm, 20 min after reaction initiation)?
A: 0.543

Q: And the “turbidity (630 nm)” value ([3]; vanillic acid 300 ppm, 30 min after reaction initiation)?
A: 0.538

Q: What about the “turbidity (630 nm)” value ([3]; vanillic acid 300 ppm, 40 min after reaction initiation) of the same compound?
A: 0.526

Q: And the “turbidity (630 nm)” value ([3]; vanillic acid 300 ppm, 50 min after reaction initiation)?
A: 0.507

Q: What about the “turbidity (630 nm)” value ([3]; vanillic acid 300 ppm, 60 min after reaction initiation) of the same compound?
A: 0.501

Q: What about the “turbidity (630 nm)” value ([3]; vanillic acid 300 ppm, 90 min after reaction initiation) of the same compound?
A: 0.452

Q: And the “turbidity (630 nm)” value ([3]; vanillic acid 300 ppm, 120 min after reaction initiation)?
A: 0.381

Q: What about the “turbidity (630 nm)” value ([3]; vanillic acid 300 ppm, 180 min after reaction initiation) of the same compound?
A: 0.235

Q: What about the “turbidity (630 nm)” value ([3]; vanillic acid 600 ppm, 0 min after reaction initiation) of the same compound?
A: 0.566

Q: What about the “turbidity (630 nm)” value ([3]; vanillic acid 600 ppm, 10 min after reaction initiation) of the same compound?
A: 0.568

Q: And the “turbidity (630 nm)” value ([3]; vanillic acid 600 ppm, 20 min after reaction initiation)?
A: 0.561

Q: And the “turbidity (630 nm)” value ([3]; vanillic acid 600 ppm, 30 min after reaction initiation)?
A: 0.540

Q: What about the “turbidity (630 nm)” value ([3]; vanillic acid 600 ppm, 40 min after reaction initiation) of the same compound?
A: 0.512

Q: And the “turbidity (630 nm)” value ([3]; vanillic acid 600 ppm, 50 min after reaction initiation)?
A: 0.499

Q: What about the “turbidity (630 nm)” value ([3]; vanillic acid 600 ppm, 60 min after reaction initiation) of the same compound?
A: 0.488

Q: What about the “turbidity (630 nm)” value ([3]; vanillic acid 600 ppm, 90 min after reaction initiation) of the same compound?
A: 0.447

Q: What about the “turbidity (630 nm)” value ([3]; vanillic acid 600 ppm, 120 min after reaction initiation) of the same compound?
A: 0.390

Q: What about the “turbidity (630 nm)” value ([3]; vanillic acid 600 ppm, 180 min after reaction initiation) of the same compound?
A: 0.262

Q: And the “turbidity (630 nm)” value ([3]; vanillic acid 1200 ppm, 0 min after reaction initiation)?
A: 0.567

Q: What about the “turbidity (630 nm)” value ([3]; vanillic acid 1200 ppm, 10 min after reaction initiation) of the same compound?
A: 0.559

Q: What about the “turbidity (630 nm)” value ([3]; vanillic acid 1200 ppm, 20 min after reaction initiation) of the same compound?
A: 0.551

Q: And the “turbidity (630 nm)” value ([3]; vanillic acid 1200 ppm, 30 min after reaction initiation)?
A: 0.548

Q: What about the “turbidity (630 nm)” value ([3]; vanillic acid 1200 ppm, 40 min after reaction initiation) of the same compound?
A: 0.520

Q: What about the “turbidity (630 nm)” value ([3]; vanillic acid 1200 ppm, 50 min after reaction initiation) of the same compound?
A: 0.509

Q: And the “turbidity (630 nm)” value ([3]; vanillic acid 1200 ppm, 60 min after reaction initiation)?
A: 0.496

Q: What about the “turbidity (630 nm)” value ([3]; vanillic acid 1200 ppm, 90 min after reaction initiation) of the same compound?
A: 0.474

Q: And the “turbidity (630 nm)” value ([3]; vanillic acid 1200 ppm, 120 min after reaction initiation)?
A: 0.456

Q: And the “turbidity (630 nm)” value ([3]; vanillic acid 1200 ppm, 180 min after reaction initiation)?
A: 0.419

Q: What about the “turbidity (630 nm)” value ([3]; vanillic acid 1800 ppm, 0 min after reaction initiation) of the same compound?
A: 0.579

Q: What about the “turbidity (630 nm)” value ([3]; vanillic acid 1800 ppm, 10 min after reaction initiation) of the same compound?
A: 0.562

Q: And the “turbidity (630 nm)” value ([3]; vanillic acid 1800 ppm, 20 min after reaction initiation)?
A: 0.549

Q: And the “turbidity (630 nm)” value ([3]; vanillic acid 1800 ppm, 30 min after reaction initiation)?
A: 0.538

Q: And the “turbidity (630 nm)” value ([3]; vanillic acid 1800 ppm, 40 min after reaction initiation)?
A: 0.519

Q: And the “turbidity (630 nm)” value ([3]; vanillic acid 1800 ppm, 50 min after reaction initiation)?
A: 0.510

Q: And the “turbidity (630 nm)” value ([3]; vanillic acid 1800 ppm, 60 min after reaction initiation)?
A: 0.498

Q: What about the “turbidity (630 nm)” value ([3]; vanillic acid 1800 ppm, 90 min after reaction initiation) of the same compound?
A: 0.472

Q: What about the “turbidity (630 nm)” value ([3]; vanillic acid 1800 ppm, 120 min after reaction initiation) of the same compound?
A: 0.453

Q: What about the “turbidity (630 nm)” value ([3]; vanillic acid 1800 ppm, 180 min after reaction initiation) of the same compound?
A: 0.420

Q: And the “germination induction versus concentration” value ([3]; vanillic acid of 10 to 1800 ppm)?
A: germination was inducted at any concentration to the same extent
